Patent EP0182152B1, “Antitumor antibiotics (LL-E33288 Complex)” (AMERICAN CYANAMID COMPANY, priority 1984, dated 1986)

Assays:
[1] = test system: Morganella morganii; assay: in vitro antibacterial activity, agar dilution MIC; type: cell-based; settings: Morganella morganii IO 83-18
Procedure: (§1) The in vitro antibacterial activity of LL-E33288 components was determined against a spectrum of gram-positive and gram-negative bacteria by a standard agar dilution method. Mueller-Hinton again containing two-fold decreasing concentrations of the antibiotics were poured into petri plates. the agar surfaces were inoculated with 1 to 5 x 10^4 colong forming units of bacteria by means of the steers replicating device.

[2] = test system: Acinetobacter sp.; assay: in vitro antibacterial activity, agar dilution MIC; type: cell-based
Procedure: as §1

[3] = test system: Providencia stuartii; assay: in vitro antibacterial activity, agar dilution MIC; type: cell-based; settings: Providencia stuartii CMC 83-82
Procedure: as §1

[4] = test system: Citrobacter diversus; assay: in vitro antibacterial activity, agar dilution MIC; type: cell-based; settings: Citrobacter diversus K 82-84
Procedure: as §1

[5] = test system: Enterobacter cloacae; assay: in vitro antibacterial activity, agar dilution MIC; type: cell-based; settings: Enterobacter cloacae CMC 84-4
Procedure: as §1

[6] = test system: Escherichia coli; assay: in vitro antibacterial activity, agar dilution MIC; type: cell-based
Procedure: as §1

[7] = test system: Enterobacter aerogenes; assay: in vitro antibacterial activity, agar dilution MIC; type: cell-based; settings: Enterobacter aerogenes IO 83-44
Procedure: as §1

[8] = test system: Serratia marcescens; assay: in vitro antibacterial activity, agar dilution MIC; type: cell-based
Procedure: as §1

[9] = test system: Citrobacter freundii; assay: in vitro antibacterial activity, agar dilution MIC; type: cell-based; settings: Citrobacter freundii IO 83-13
Procedure: as §1

[10] = test system: Klebsiella pneumoniae; assay: in vitro antibacterial activity, agar dilution MIC; type: cell-based
Procedure: as §1

[11] = test system: M5076 reticular cell Sarcoma; assay: M5076 Sarcoma test; type: in vivo, BDF1 mice; settings: Table VIII, i.p. days 1, 5, 9, 13 and 17, control 28.5 days
Procedure: The M5076 reticular cell Sarcoma is propagated as subcutaneous implants in C57B2/6 female mice. In the assays for antitumor activity, BDF1 mice of either sex were inoculated intraperitoneally with 0.5 ml of a 10% tumor brei. LL-E33288 antibiotics were tested in the M5076 system as a complex (Bromo-complex) of all components. Test compounds were administered intraperitoneally on days 1, 5, 9, 13 and 17 relative to tumor inoculation on day zero. The median survival time in days was determined for each drug dose used on day 60 and the ratio of survival time for treated (T)/control (C) animals were calculated. The results of this test appear in Table VIII compared to the results obtained with Cisplatin. If T/C X 100 (%) is 125 or over, the tested compound is considered to have significant anti-tumor activity.

## CCN[C@H]1CO[C@@H](O[C@H]2[C@H](O[C@H]3C#CC=CC#C[C@@]4(O)CC(=O)C(NC(=O)OC)=C3/C4=C\CSSSC)O[C@H](C)[C@@H](NO[C@H]3C[C@H](O)[C@H](SC(=O)c4c(C)c(I)c(O[C@@H]5O[C@@H](C)[C@H](O)[C@@H](OC)[C@H]5O)c(OC)c4OC)[C@@H](C)O3)[C@@H]2O)C[C@@H]1OC (stereo in doubt) [LL-E33288γ1-I]
[1]
  Minimal Inhibitory Concentration: 0.25 µg/mL
[2]; Acinetobacter sp. CMC 83-89
  Minimal Inhibitory Concentration: 0.12 µg/mL
[2]; Acinetobacter sp. IO 83-49
  Minimal Inhibitory Concentration: 0.06 µg/mL
[3]
  Minimal Inhibitory Concentration: 0.25 µg/mL
[4]
  Minimal Inhibitory Concentration: 0.25 µg/mL
[5]
  Minimal Inhibitory Concentration: 0.50 µg/mL
[6]; Escherichia coli ATCC 25922
  Minimal Inhibitory Concentration: 0.25 µg/mL
[6]; Escherichia coli CMC 84-11, about 18 hours, 35°C
  Minimal Inhibitory Concentration: 0.25 µg/mL
[6]; Escherichia coli No. 311-(MP)
  Minimal Inhibitory Concentration: 0.25 µg/mL
[7]
  Minimal Inhibitory Concentration: 0.50 µg/mL
[8]; Serratia marcescens CMC 83-27
  Minimal Inhibitory Concentration: 0.25 µg/mL
[8]; Serratia marcescens F35 (MP)
  Minimal Inhibitory Concentration: 0.12 µg/mL
[9]
  Minimal Inhibitory Concentration: 0.12 µg/mL
[10]; Klebsiella pneumoniae AD (MP)
  Minimal Inhibitory Concentration: 0.25 µg/mL
[10]; Klebsiella pneumoniae CMC 84-5
  Minimal Inhibitory Concentration: 0.25 µg/mL

## N.N.[Cl][Pt][Cl] [Cisplatin, reference compound]
[11]; dose 0.25 mg/kg
  Median Survival: 45 days
  T/C x 100: 158%
[11]; dose 0.5 mg/kg
  Median Survival: 44.5 days
  T/C x 100: 156%
[11]; dose 1 mg/kg
  Median Survival: 30 days
  T/C x 100: 105%
